Where two headings read alike, the source gives them in different places.
Experiments:
L. major promastigotes = experiment: L. major promastigote viability, resazurin reduction; format: cell-based, Leishmania major; conditions: Leishmania major; 25 µM, 72 h, vs non-treated cells; read-out: Residual viability, L.major promastigote (25 µM)
Source text: (§1) The infectivity of the parasites was boosted by passaging in Balb/c mice and culturing the infected lymph nodes after six weeks. L. infantum (MHOM / BR / 76 / M4192) parasite was passaged in the same media formulation with 0.5% urine.

[1] = tested on: L. infantum promastigotes; experiment: L. infantum promastigote viability, resazurin reduction; format: cell-based, Leishmania infantum; conditions: Leishmania infantum, 72 h, vs non-treated cells
Source text: as §1

[2] = tested on: L. major axenic amastigotes; experiment: L. major axenic amastigote viability, resazurin reduction; conditions: Leishmania major
Protocol: L. major LV561(MHOM/IL/67/LRC-L137 JERICHO II) amastigotes were passaged in Grace insect medium supplemented with NaHCO3, 0.1% amikin and 20% of FCS (pH: 5.4) and kept at 33°C.
Exponential growth phase promastigotes of L. major or L. infantum and axenic amastigotes (L. major) were harvested and seeded in 384 well plates (white, non-transparent, tissue culture treated, flat bottom; Corning) (0.5x10^5 cells per well). Compounds were pre-dispensed into the plate with an Echo 650 acoustic dispenser (Beckman Coulter). After 72h incubation, resazurin was added (1:10 v/v) from a […] stock in PBS, followed by incubation for six hours. Then, fluorescence intensity was measured using a microplate reader (Synergy H1, BioTek) with excitation filter: 550 nm and emission filter: 590 nm. Efficient compounds were selected for the next round of viability assay with 2.5 μM concentrations of the compounds. […] All experiments were performed with AmB as a positive control drug in parallel.
Axenic amastigotes, the relevant form that persists in the infected host, were generated in the lab through established procedures, employing harsh pH (pH 5) and high temperature (33°C) conditions.

[3] = tested on: intracellular L. infantum amastigotes; experiment: Parasite rescue assay (intramacrophage, J774 infected with L. infantum); format: cell-based, Leishmania infantum; conditions: Leishmania infantum, J774, rescue assay in J774, 25 µM; read-out: Residual viability, intracellular L. infantum amastigote (25 µM)
Protocol: After 24 h incubation, cells were washed five times with serum free RPMI and exposed to a serial dilution of test compounds, prepared using an acoustic dispenser (Echo 650, Labcyte), in RPMI (2% FCS). After two days, cells were washed thrice, and 20 μl of 0.05% SDS in RPMI was added upon removal of the supernatant. Upon incubation under orbital shaking for 30 seconds, cell lysis was stopped by addition of 180 μl M199 medium supplemented with 10% FCS. […] Then, fluorescence intensity of the samples was measured with a microplate reader (Synergy H1, BioTek) with λEx: 550 nm and λEm: 590 nm. Percent of viability was calculated according to cell only and media controls.
J774A.1 cells (J774) were infected with L. infantum metacyclic promastigotes. […] After controlled lysis of the infected macrophages, the released parasites were quantified using a resazurin based viability assay.

T. brucei brucei BSF = experiment: T. brucei BSF viability, resazurin reduction; format: cell-based, Trypanosoma brucei brucei; conditions: Trypanosoma brucei, 72 h, BSF, 72 h
Protocol: T. brucei brucei (strain 427 Lister) blood stream form (BSF) parasites were passaged in complete HMI-9 media supplemented with 10% FCS, Pen-Strep (0.1%) and 2-mercaptoethanol (0.014 v/v) and kept in a 37° C CO2 incubator in filter-cap flasks.
(§2) Viability of T. brucei brucei BSF and T. cruzi trypomastigotes was assayed with fluorescence resazurin reduction assay, essentially as described above. […] Next, selected compounds were tested at 2.5 μM concentration, and promising compounds subjected to 18 concentrations dose response analyses. AN3057 and AmB were used as a control drug in T. brucei and T. cruzi, respectively.

T. cruzi trypomastigotes = experiment: T. cruzi viability, resazurin reduction; format: cell-based, Trypanosoma cruzi; conditions: Trypanosoma cruzi, 72 h, 72 h
Protocol: T. cruzi (Y strain) trypomastigotes were passaged in liver infusion broth media supplemented with tryptose, NaCl, Na2HPO4, KCl, glucose, hemin, Pen-Strep (1%), 10% FCS (pH: 7.2) and kept at 28°C.
as §2

E. histolytica = E. histolytica viability, ATP luminescence (Cell titer glo); format: cell-based, Entamoeba histolytica; conditions: Entamoeba histolytica, 48 h
Protocol: Entamoeba histolytica (strain B2-5) was passaged in TY-1 medium (Trypticase peptone BBL, Yeast extract BBL, glucose, NaCl, K2HPO4, KH2PO4, cysteine, ascorbic acid, ammonium iron citrate, adult bovine serum, Diamond tween 80, penicillin G, amikacin (pH:6.8)) and kept in 37°C incubator in completely filled tubes with closed lid.
Viability of E. histolytica was assayed via a luminescence assay based on ATP quantification in the live cells. Briefly, 2.5x10^4 cell/ml were exposed to 25 μM of compounds in 96 well plates (non-transparent, tissue culture treated, flat bottom; SPL Life Sciences) in triplicate for 48h. Plates were incubated in sealed anaerobic bags (Oxoid AGS) together with an Anaerogen compact bag (Thermo Scientific) and anaerobic indicator (Thermo Scientific) at 37°C. Then, Cell titer glo reagent (Promega) was added to the reaction (1:5) according to manufacturers’ instruction. After 15 min of orbital shaking, followed by 10 min incubation at RT, ATP-bioluminescence was quantified at RT using a Synergy H1 plate reader (Synergy H1, BioTek). Metronidazole was included as control drug in all the assays for E. histolytica. Test compounds indicating significant growth reduction in the primary screen were subjected to potency determination. These secondary screens were essentially carried out as detailed above, but with a 9 to 16-point concentration range of the test compounds spanning 0.01–100 μM.

[4] = Cytotoxicity assay J774, resazurin reduction; format: cell-based, murine; conditions: mouse, J774 macrophage cells, cytotoxicity, 72 h
Protocol: Mammalian cell lines (J774 and HepG2) were passaged in RPMI media supplemented with MEM, Pen-Strep (1%) and 10% FCS. Cultures were kept at 37°C incubator with 5% CO2 in filter-cap flasks.
Murine macrophage cells (J774) and human hepatocyte carcinoma HepG2 cells were seeded at 0.5x10^5 cell/well in 384 well plates in triplicate, exposed to serial dilution of compounds, dispensed using an Echo 650 acoustic dispenser (Labcyte). After incubation for 72 h at 37°C, 5% CO2, cell viability was determined using fluorescence resazurin reduction assay (λEx: 550 nm; λEm: 590 nm).

T. brucei BSF proteome = tested on: T. brucei BSF proteome; parameters: method as in PMID: 32354742; conditions: ref PMID: 32354742, cited from earlier work

CC[C@@H](C)[C@H](c1nc2ccccc2n1Cc1cn(-c2c(F)c(F)c(F)c(F)c2F)nn1)N1C(=O)c2ccccc2C1=O [PHT-41]
viability at 25 µM (L. major promastigotes): 21.5 ± 1.47%
viability at 2.5 µM ([1]; 2.5 µM, read-out: Residual viability, L. infantum promastigote (2.5 µM)): 54.6 ± 1.29%
viability at 25 µM ([1]; 25 µM, ± SD, triplicate, read-out: Residual viability, L. infantum promastigote (25 µM)): 12.4 ± 1.22%
viability at 2.5 µM ([2]; 72 h, read-out: Residual viability, L.major amastigote (2.5 µM)): 64.8 ± 5.36%
viability at 25 µM ([2]; 72 h, read-out: Residual viability, L.major amastigote (25 µM)): 4.6%
EC50 ([2]; read-out: EC50 L. major axenic amastigote): 3.6 ± 2.1 µM
viability at 25 µM [3]: 81.4 ± 2.86%
viability at 2.5 µM (T. brucei brucei BSF; 2.5 µM, read-out: Residual viability, T.brucei (2.5 µM)): 57.4 ± 11%
viability at 25 µM (T. brucei brucei BSF; 25 µM, read-out: Residual viability, T.brucei (25 µM)): 3.15 ± 3%
viability at 2.5 µM (T. cruzi trypomastigotes; 2.5 µM, read-out: Residual viability, T.cruzi (2.5 µM)): 64.5 ± 2.58%
viability at 25 µM (T. cruzi trypomastigotes; read-out: Residual viability, T.cruzi (25 µM), 25 µM, 72 h): 22.7 ± 0.63%
viability at 2.5 µM (E. histolytica; 2.5 µM, read-out: Residual viability, E.histolytica (2.5 µM)): 110 ± 24.2%
viability at 25 µM (E. histolytica; 25 µM, read-out: Residual viability, E.histolytica (25 µM)): 53.3 ± 1.97%
viability at 72 h, 2.5 µM ([4]; 2.5 µM, read-out: Residual viability, J774 (2.5 µM)): 96.1 ± 3.84%
viability at 72 h, 25 µM ([4]; 25 µM, read-out: Residual viability, J774 (25 µM)): 86.1 ± 5.26%

Cc1ccc(C(=O)Nc2ccc(S(=O)(=O)O)c3cc(S(=O)(=O)O)cc(S(=O)(=O)O)c23)cc1NC(=O)c1cccc(NC(=O)Nc2cccc(C(=O)Nc3cc(C(=O)Nc4ccc(S(=O)(=O)O)c5cc(S(=O)(=O)O)cc(S(=O)(=O)O)c45)ccc3C)c2)c1 [suramin]
suramin ratio (protein abundance) (T. brucei BSF proteome; protein 2-oxoglutarate dehydrogenase E1 component, Tb927.11.1450): 2.73
suramin ratio (protein abundance) (T. brucei BSF proteome; protein 2-oxoglutarate dehydrogenase E1 component, Tb927.11.9980): 3.16
suramin ratio (protein abundance) (T. brucei BSF proteome; protein ACS1, Tb927.7.6180): 0.80
suramin ratio (protein abundance) (T. brucei BSF proteome; protein Aconitase, Tb927.10.14000): 2.76
suramin ratio (protein abundance) (T. brucei BSF proteome; protein CIF1 (TOEFAZ1), Tb927.11.15800): 0.78
suramin ratio (protein abundance) (T. brucei BSF proteome; protein CIF3, Tb927.10.13100): 1.00
suramin ratio (protein abundance) (T. brucei BSF proteome; protein CIF4, Tb927.10.8240): 0.84
suramin ratio (protein abundance) (T. brucei BSF proteome; protein F1 alpha, Tb927.7.7430, Tb927.7.7420): 1.62
suramin ratio (protein abundance) (T. brucei BSF proteome; protein F1 beta, Tb927.3.1380): 1.57
suramin ratio (protein abundance) (T. brucei BSF proteome; protein F1 gamma, Tb927.10.180): 1.62
suramin ratio (protein abundance) (T. brucei BSF proteome; protein F1 p18, Tb927.5.1710): 0.87
suramin ratio (protein abundance) (T. brucei BSF proteome; protein FPRC, Tb927.10.6360): 1.14
suramin ratio (protein abundance) (T. brucei BSF proteome; protein Fo 8, Tb927.4.3450): 1.62
suramin ratio (protein abundance) (T. brucei BSF proteome; protein Fo ATBTB1, Tb927.10.520): 1.20
suramin ratio (protein abundance) (T. brucei BSF proteome; protein Fo ATBTB3, Tb927.11.6250): 1.77
suramin ratio (protein abundance) (T. brucei BSF proteome; protein Fo ATBTB4, Tb927.10.9830): 0.88
suramin ratio (protein abundance) (T. brucei BSF proteome; protein Fo ATBTB12, Tb927.5.3090): 1.92
suramin ratio (protein abundance) (T. brucei BSF proteome; protein Fo OSCP, Tb927.10.8030): 1.11
suramin ratio (protein abundance) (T. brucei BSF proteome; protein Fo d, Tb927.5.2930): 1.32
suramin ratio (protein abundance) (T. brucei BSF proteome; protein Fo e, Tb927.11.600): 1.21
suramin ratio (protein abundance) (T. brucei BSF proteome; protein Fo f, Tb927.3.1690): 1.06
suramin ratio (protein abundance) (T. brucei BSF proteome; protein Fo i/j, Tb927.3.2880): 1.67
suramin ratio (protein abundance) (T. brucei BSF proteome; protein Fo k, Tb927.7.840): 1.07
suramin ratio (protein abundance) (T. brucei BSF proteome; protein Glutamate dehydrogenase, Tb927.9.5900): 3.30
suramin ratio (protein abundance) (T. brucei BSF proteome; protein PIP39, Tb927.9.6090): 2.83
suramin ratio (protein abundance) (T. brucei BSF proteome; protein PPDK, Tb927.11.6280): 2.94
suramin ratio (protein abundance) (T. brucei BSF proteome; protein Proline dehydrogenase, Tb927.7.210): 4.55
suramin ratio (protein abundance) (T. brucei BSF proteome; protein SAXO, Tb927.8.6240): 0.98
suramin ratio (protein abundance) (T. brucei BSF proteome; protein Tb927.1.4280): 0.91
suramin ratio (protein abundance) (T. brucei BSF proteome; protein isocitrate dehydrogenase, Tb927.8.3690): 1.96
suramin ratio (protein abundance) (T. brucei BSF proteome; protein mitochondrial malate dehydrogenase, Tb927.10.2560): 1.99
suramin ratio (protein abundance) (T. brucei BSF proteome; protein succinyl-CoA ligase beta-chain, Tb927.10.7410): 1.97
suramin ratio (protein abundance) (T. brucei BSF proteome; protein succinyl-CoA synthetase alpha subunit, Tb927.3.2230): 1.94

Reference: paper PMC10994559 (PLOS Neglected Tropical Diseases, 2024)
